# Results reported in US20040062815A1, “Bdellosomes” (priority 2000, published 2004).
# Key:
# [1] = format: physicochemical
# Excerpt: In addition, the simplicity of the synthesis of the bdellosomes resulting from the monomolecular structure of the particle is particularly noteworthy.
# trypanosomes = test: inhibition of the growth of trypanosomes by free daunomycin; format: cell-based, Trypanosoma brucei brucei
Molecule,Stability [1],concentration in the medium causing inhibition of the growth of trypanosomes (trypanosomes)
"polyvinyl(te/o-alanylpolylactide)ate[a=4000, b=100] [bdellosomes]",high,
COc1cccc2c1C(=O)c1c(O)c3c(c(O)c1C2=O)C[C@@](O)(C(C)=O)C[C@@H]3O[C@H]1C[C@H](N)[C@H](O)[C@H](C)O1 [daunomycin],,≥ 10^−7 mol
